ChEMBL document CHEMBL1201862, “PubChem BioAssay data set” (2004)
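Interpolation was linear, between the two tested concentrations surrounding the appropriate level; five concentrations were tested over 48 hours in 96-well plates. GI50: concentration for 50% inhibition of growth.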 Activity calls are given as the source filed them. No stated cut-off is given here; in the data, active = GI50 up to about 1.1 µM and inactive = higher.

Columns and labels:
Experiment in all cases: NCI-60 cell line screen, 48 h
Hs-578T = tested on: Hs-578T
SF-268 = tested on: SF-268
A549 = tested on: A549
HT-29 = tested on: HT-29
LOX IMVI = tested on: LOX IMVI
SNB-75 = tested on: SNB-75
SR = tested on: SR
Malme-3M = tested on: Malme-3M
NCI-H23 = tested on: NCI-H23
KM12 = tested on: KM12
SF-539 = tested on: SF-539
PC-3 = tested on: PC-3
U-251 = tested on: U-251
SF-295 = tested on: SF-295
DU-145 = tested on: DU-145
SW-620 = tested on: SW-620
UACC-62 = tested on: UACC-62
CCRF-CEM = tested on: CCRF-CEM
UO-31 = tested on: UO-31
RXF 393 = tested on: RXF 393

| SMILES | GI50 (Hs-578T) | GI50 (SF-268) | GI50 (A549) | GI50 (HT-29) | GI50 (LOX IMVI) | GI50 (SNB-75) | GI50 (SR) | GI50 (Malme-3M) | GI50 (NCI-H23) | GI50 (KM12) | GI50 (SF-539) | GI50 (PC-3) | GI50 (U-251) | GI50 (SF-295) | GI50 (DU-145) | GI50 (SW-620) | GI50 (UACC-62) | GI50 (CCRF-CEM) | GI50 (UO-31) | GI50 (RXF 393) |
| --- | --- | --- | --- | --- | --- | --- | --- | --- | --- | --- | --- | --- | --- | --- | --- | --- | --- | --- | --- | --- |
| COc1ccc(C2=C(N)c3ccccc3C2=O)cc1 | 27.5 µM (inactive) | 33.7 µM (inactive) | > 100 µM (inactive) | > 100 µM (inactive) | > 100 µM (inactive) | 27.7 µM (inactive) | > 100 µM (inactive) | > 100 µM (inactive) | 39.5 µM (inactive) | > 100 µM (inactive) | 40.9 µM (inactive) | > 100 µM (inactive) | 33.9 µM (inactive) | 37.3 µM (inactive) | > 100 µM (inactive) | > 100 µM (inactive) | > 100 µM (inactive) | > 100 µM (inactive) | – | – |
| O=C1CC(c2cccc(Cl)c2)Nc2ccc(N3CCCC3)cc21 (stereo unspecified) | 0.01 µM (active) | 0.115 µM (active) | 0.0494 µM (active) | 0.0791 µM (active) | 0.0518 µM (active) | – | 0.0304 µM (active) | – | 0.278 µM (active) | 0.361 µM (active) | 0.0263 µM (active) | 0.0343 µM (active) | 0.0314 µM (active) | 0.0439 µM (active) | 0.0391 µM (active) | 0.0266 µM (active) | 0.0537 µM (active) | 0.0302 µM (active) | 0.0603 µM (active) | 0.0224 µM (active) |
| CC(C)CCCC(C)[C@H]1CC[C@H]2[C@@H]3CC[C@H]4C[C@@H](CCC=C(c5cc(Cl)c(O)c(C(=O)OC(C)C)c5)c5cc(Cl)c(O)c(C(=O)OC(C)C)c5)CC[C@]4(C)[C@H]3CC[C@]12C (stereo partly specified) | > 50 µM (inactive) | > 50 µM (inactive) | > 50 µM (inactive) | > 50 µM (inactive) | > 50 µM (inactive) | > 50 µM (inactive) | – | – | > 50 µM (inactive) | > 50 µM (inactive) | > 50 µM (inactive) | > 50 µM (inactive) | > 50 µM (inactive) | > 50 µM (inactive) | > 50 µM (inactive) | > 50 µM (inactive) | > 50 µM (inactive) | > 50 µM (inactive) | – | > 50 µM (inactive) |
| CCCCCCCCNC(=O)C1=C(C)NC(C)=C(C(=O)NCCCCCCCC)C1 | > 100 µM (inactive) | > 100 µM (inactive) | > 100 µM (inactive) | 82.8 µM (inactive) | > 100 µM (inactive) | 23.2 µM (inactive) | – | – | > 100 µM (inactive) | > 100 µM (inactive) | > 100 µM (inactive) | 80 µM (inactive) | 94.4 µM (inactive) | > 100 µM (inactive) | > 100 µM (inactive) | > 100 µM (inactive) | > 100 µM (inactive) | 39.6 µM (inactive) | 77.6 µM (inactive) | > 100 µM (inactive) |
| O=C(O)c1c[nH]c2c(Sc3ccccc3)nccc2c1=O | > 100 µM (inactive) | > 100 µM (inactive) | > 100 µM (inactive) | > 100 µM (inactive) | 44.2 µM (inactive) | > 100 µM (inactive) | – | – | > 100 µM (inactive) | 39.9 µM (inactive) | > 100 µM (inactive) | > 100 µM (inactive) | > 100 µM (inactive) | > 100 µM (inactive) | > 100 µM (inactive) | > 100 µM (inactive) | > 100 µM (inactive) | 47 µM (inactive) | > 100 µM (inactive) | – |
| COc1cc(OC)cc(-n2c(N)c(C#N)c3ccc([N+](=O)[O-])cc3c2=O)c1 | 24.2 µM (inactive) | 32.4 µM (inactive) | 43.4 µM (inactive) | > 100 µM (inactive) | > 100 µM (inactive) | 19.7 µM (inactive) | 14.2 µM (inactive) | – | 36.4 µM (inactive) | > 100 µM (inactive) | – | 41.3 µM (inactive) | 22.9 µM (inactive) | – | 20.8 µM (inactive) | > 100 µM (inactive) | 27.3 µM (inactive) | – | 19.5 µM (inactive) | – |
| CN(C)CCNC(=O)c1cccc2c(NC(CS)C(=O)O)c3ccccc3[n+](C)c12 (stereo unspecified) | > 100 µM (inactive) | 23.6 µM (inactive) | 62.1 µM (inactive) | 99.3 µM (inactive) | 32.8 µM (inactive) | 41.6 µM (inactive) | 22.7 µM (inactive) | 30.2 µM (inactive) | 89.5 µM (inactive) | > 100 µM (inactive) | 80.4 µM (inactive) | 49 µM (inactive) | > 100 µM (inactive) | > 100 µM (inactive) | 37.6 µM (inactive) | 39.7 µM (inactive) | 61.2 µM (inactive) | – | 71.8 µM (inactive) | – |
| CC(=O)N1C(C(=O)NC2CCCCC2)CSC1c1ccccc1 (stereo unspecified) | > 100 µM (inactive) | > 100 µM (inactive) | > 100 µM (inactive) | > 100 µM (inactive) | > 100 µM (inactive) | > 100 µM (inactive) | > 100 µM (inactive) | > 100 µM (inactive) | > 100 µM (inactive) | > 100 µM (inactive) | > 100 µM (inactive) | > 100 µM (inactive) | > 100 µM (inactive) | > 100 µM (inactive) | > 100 µM (inactive) | > 100 µM (inactive) | > 100 µM (inactive) | > 100 µM (inactive) | > 100 µM (inactive) | – |
| SC1=NC2=C(CSC/C2=C\c2ccc(Cl)cc2)C(c2ccc(Cl)cc2)N1 (stereo unspecified) | 45.3 µM (inactive) | 75.7 µM (inactive) | 34.4 µM (inactive) | 29.6 µM (inactive) | 27 µM (inactive) | – | 32.2 µM (inactive) | 26.4 µM (inactive) | 46.9 µM (inactive) | 25.9 µM (inactive) | – | 31.3 µM (inactive) | 36.8 µM (inactive) | 42.2 µM (inactive) | 39.4 µM (inactive) | 41.3 µM (inactive) | 49 µM (inactive) | 24.7 µM (inactive) | 32.4 µM (inactive) | – |
| CC(Nc1cc(Cl)cc(Cl)c1)c1ccncc1 (stereo unspecified) | 35.2 µM (inactive) | 17.9 µM (inactive) | 27.8 µM (inactive) | 27.7 µM (inactive) | 10.9 µM (inactive) | 23.3 µM (inactive) | – | 27.7 µM (inactive) | 23.9 µM (inactive) | – | 21.8 µM (inactive) | 12.1 µM (inactive) | 17.9 µM (inactive) | 18.5 µM (inactive) | > 10 µM (inactive) | 17.4 µM (inactive) | – | 15.3 µM (inactive) | 13.3 µM (inactive) | 20.7 µM (inactive) |
| O=[N+]([O-])c1cc2ccc1OCc1cccc(n1)COc1ccc(cc1[N+](=O)[O-])/C=N\CCCCCCCC/N=C\2 | > 100 µM (inactive) | > 100 µM (inactive) | > 100 µM (inactive) | > 100 µM (inactive) | > 100 µM (inactive) | > 100 µM (inactive) | > 100 µM (inactive) | > 100 µM (inactive) | > 100 µM (inactive) | > 100 µM (inactive) | > 100 µM (inactive) | > 100 µM (inactive) | > 100 µM (inactive) | > 100 µM (inactive) | > 100 µM (inactive) | > 100 µM (inactive) | > 100 µM (inactive) | > 100 µM (inactive) | > 100 µM (inactive) | – |
| OCCOCCN1CCN(CCCN2c3ccccc3Sc3ccc(C(F)(F)F)cc32)CC1 | 11.9 µM (inactive) | 16.5 µM (inactive) | 13.1 µM (inactive) | 2.33 µM (inactive) | 3.97 µM (inactive) | 2.39 µM (inactive) | – | – | 16.4 µM (inactive) | 6.7 µM (inactive) | 12.4 µM (inactive) | 15.6 µM (inactive) | 12.3 µM (inactive) | 12.9 µM (inactive) | 14.2 µM (inactive) | 15.5 µM (inactive) | 6.65 µM (inactive) | 0.337 µM (active) | 5.74 µM (inactive) | 3.18 µM (inactive) |
| O=C(CCCN1CCC2(CC1)CC(=O)N(N1CCOCC1)C2=O)c1ccc(F)cc1 | > 100 µM (inactive) | > 100 µM (inactive) | > 100 µM (inactive) | > 100 µM (inactive) | > 100 µM (inactive) | > 100 µM (inactive) | – | > 100 µM (inactive) | > 100 µM (inactive) | > 100 µM (inactive) | > 100 µM (inactive) | > 100 µM (inactive) | > 100 µM (inactive) | > 100 µM (inactive) | > 100 µM (inactive) | > 100 µM (inactive) | > 100 µM (inactive) | > 100 µM (inactive) | > 100 µM (inactive) | > 100 µM (inactive) |
| C=C(C)C12OC1[C@@]1(C)C(=CC2=O)CCC(O)[C@@H]1C (stereo partly specified) | 1.75 µM (inactive) | 2.14 µM (inactive) | 1.42 µM (inactive) | 1.21 µM (inactive) | 2.67 µM (inactive) | 3.42 µM (inactive) | 1.84 µM (inactive) | 3.38 µM (inactive) | 2.26 µM (inactive) | 2.44 µM (inactive) | 1.97 µM (inactive) | 2.65 µM (inactive) | 1.14 µM (inactive) | 2.58 µM (inactive) | 1.05 µM (active) | 2.39 µM (inactive) | 3.66 µM (inactive) | 0.726 µM (active) | 1.49 µM (inactive) | – |
| NS(=O)(=O)c1ccc(C(=O)O)cc1 [CARZENIDE] | > 100 µM (inactive) | > 100 µM (inactive) | > 100 µM (inactive) | > 100 µM (inactive) | > 100 µM (inactive) | – | – | > 100 µM (inactive) | > 100 µM (inactive) | > 100 µM (inactive) | – | > 100 µM (inactive) | > 100 µM (inactive) | > 100 µM (inactive) | > 100 µM (inactive) | > 100 µM (inactive) | > 100 µM (inactive) | > 100 µM (inactive) | > 100 µM (inactive) | > 100 µM (inactive) |
